One experiment deals with T1, MVM / MVMp VLP (VP2) (Murine minute virus strain MVM prototype, UniProt P03137).
T1 construct: VP2-only virus-like particle without DNA, T=1 icosahedral 60-mer, baculovirus/Sf9; DyLight488-labelled
As to the kind of experiment: Max-Planck glycan microarray, fluorescence. The experiment is classed as binding. The conditions noted are these: immobilised glycan; DyLight488-labelled VLP 0.4 mg/mL, PBS-MK (MgCl2, KCl), 4 °C overnight. From the text: Max-Planck glycan microarray, fluorescence on MVM / MVMp VLP (VP2)

The target in experiment [1] is T2, LuIII VLP (VP2) (LuIII virus, UniProt P36310).
T2 construct: VP2-only virus-like particle without DNA, T=1 icosahedral 60-mer, baculovirus/Sf9; residues 37-587 modelled
The experiment is described as follows: Max-Planck glycan microarray, fluorescence. In kind it is binding. To be noted: immobilised glycan; DyLight488-labelled VLP 0.1 mg/mL, PBS-MK (MgCl2, KCl), 4 °C overnight. From the text:
Max-Planck glycan microarray, fluorescence on LuIII VLP (VP2)

Experiment [2] deals with H-1 parvovirus virus-like particle (VLP) composed of VP2, the major capsid protein (H-1 parvovirus). As to the kind of experiment: cryo-EM structure; VLPs of VP2 in 10 mM Tris-HCl, 500 mM NaCl, 8 mM CaCl2, 2 mM MgCl2, pH 7.5, with or without glycan (s(LN)3 or s(Le^x)2); icosahedral reconstruction in cisTEM, 60mer models fitted.
The target in experiment [3] is LuIII virus-like particle (VLP) composed of VP2, the major capsid protein (parvovirus LuIII). Described as above.
Experiment [4] concerns the target T2, LuIII VLP (VP2). As to the kind of experiment: CFG glycan microarray v4.[…], antibody fluorescence. The conditions noted are these: immobilised glycan; unlabelled VLP 0.2 mg/mL, PBS, room temperature, 1 h. The experiment is classed as binding.

“Neu5Acα2-6Gαlβ1-4GlcNAc-6-sulfαteβ-AH [compound 10]”: the RFU at MVM / MVMp VLP (VP2) amounted to 203 ± 36 RFU.
With “Neu5Acα2-3Gαlβ1-4GlcNAcβ1-3Gαlβ1-4Glcβ-AH [compound 6]”, the RFU at LuIII VLP (VP2) [1] was found to be 106 ± 37 RFU; on MVM / MVMp VLP (VP2), 153 ± 24 RFU.
In turn, “H-1 parvovirus virus-like particle (VLP) composed of VP2, the major capsid protein (natural protein)” displayed a stoichiometry N in experiment [2] of 60.
Regarding “LuIII virus-like particle (VLP) composed of VP2, the major capsid protein (natural protein)”, the stoichiometry N in experiment [3] turned out to be 60.
Take `CC(=O)N[C@H]1[C@H](O[C@H]2[C@@H](O)[C@@H](CO)O[C@@H](O[C@H]3[C@H](O)[C@@H](O)[C@H](OCCCN)O[C@@H]3CO)[C@@H]2O)O[C@H](CO)[C@@H](O)[C@@H]1O[C@@H]1O[C@H](CO)[C@H](O)[C@H](O)[C@H]1O[C@@H]1O[C@@H](C)[C@@H](O)[C@@H](O)[C@@H]1O` [compound 65, Fucα1-2Galβ1-3GlcNAcβ1-3Galβ1-4Glcβ-Sp8]: the RFU at LuIII VLP (VP2) [4] is 601 ± 93 RFU.
Take Neu5Acα2-3Gαlβ1-4Glcβ-AH [compound 9]: the figures for the RFU at LuIII VLP (VP2) [1] and at MVM / MVMp VLP (VP2) were 267 ± 44 RFU and 109 ± 102 RFU, respectively.
“Fucα1-3(Neu5Acα2-3Gαlβ1-4)GlcNAcβ1-3Gαlβ1-4Glcβ-AH [compound 7]” had an RFU at LuIII VLP (VP2) [1] of 151 ± 23 RFU.
Neu5Acα2-6Gαlβ1-4Glcβ-AH [compound 8]: the RFU on LuIII VLP (VP2) [1] was determined as 105 ± 13 RFU.
On LuIII VLP (VP2) [4], `CC(=O)N[C@H]1[C@H](O[C@H]2[C@@H](O)[C@@H](CO)O[C@@H](O[C@H]3[C@H](O)[C@@H](CO)O[C@@H](OCCN)[C@@H]3NC(C)=O)[C@@H]2O)O[C@H](CO)[C@@H](O[C@@H]2O[C@H](CO)[C@H](O)[C@H](O[C@]3(C(=O)O)C[C@H](O)[C@@H](NC(C)=O)[C@H]([C@H](O)[C@H](O)CO)O3)[C@H]2O)[C@@H]1O` [compound 293, Neu5Acα2-3Galβ1-4GlcNAcβ1-3Galβ1-3GlcNAcβ-Sp0] gave an RFU of 728 ± 180 RFU.
Take `CC(=O)N[C@H]1[C@H](OCCCN)O[C@H](CO)[C@@H](O[C@@H]2O[C@H](CO)[C@H](O)[C@H](O[C@]3(C(=O)O)C[C@H](O)[C@@H](NC(C)=O)[C@H]([C@H](O)[C@H](O)CO)O3)[C@H]2O)[C@@H]1O[C@@H]1O[C@@H](C)[C@@H](O)[C@@H](O)[C@@H]1O` [compound 253, Neu5Acα2-3Galβ1-4(Fucα1-3)GlcNAcβ-Sp8]: at LuIII VLP (VP2) [4], the RFU is recorded as 1,685 ± 423 RFU.

In general, stoichiometry N refers to a count of units in the complex or per binding partner.
